Here are results for five compounds from ChEMBL document CHEMBL4765478, “Lithocholic Acid Derivatives as Potent Vitamin D Receptor Agonists” (J Med Chem, 2021).

Activity calls are given as the source filed them. The calls are words filed in the database; no cut-off is given here.

A word on the IC50: it is the concentration at which inhibition is half-maximal. The term EC50 denotes the concentration needed to bring the measured effect to its halfway point.

The target in assay [1] is T1, Vitamin D3 receptor (Homo sapiens) (UniProt P11473).
T1 sequence (whole entry): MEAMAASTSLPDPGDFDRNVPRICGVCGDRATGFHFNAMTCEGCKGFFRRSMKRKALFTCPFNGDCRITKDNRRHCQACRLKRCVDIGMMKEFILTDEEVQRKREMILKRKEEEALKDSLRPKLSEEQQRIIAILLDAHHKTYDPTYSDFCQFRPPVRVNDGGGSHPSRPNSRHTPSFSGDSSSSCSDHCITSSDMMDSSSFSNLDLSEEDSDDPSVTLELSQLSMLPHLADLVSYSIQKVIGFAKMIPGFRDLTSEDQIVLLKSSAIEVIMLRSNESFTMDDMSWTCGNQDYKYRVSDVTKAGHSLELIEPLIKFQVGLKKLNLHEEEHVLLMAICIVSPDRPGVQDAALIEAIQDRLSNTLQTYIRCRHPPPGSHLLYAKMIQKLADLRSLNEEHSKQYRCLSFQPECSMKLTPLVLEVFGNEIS
The experiment in a line: Agonist activity at VDR in human HL-60 cells assessed as induction of cell differentiation of promyelocytes to monocytes at 1 uM after 4 days by NBT reduction assay. Format: cell-based. As to conditions: filed as agonist, time 4.0 day.

Assay [2] addresses T1, Vitamin D3 receptor (Homo sapiens). As to the kind of experiment: Agonist activity at VDR in human HL-60 cells assessed as induction of cell differentiation of promyelocytes to monocytes at 0.1 nM after 4 days by NBT reduction assay. Conditions: filed as agonist, time 4.0 day. The format is cell-based.
Assay [3] has the same target. The experiment in a line: Potency index, ratio of EC50 for lithocholic acid to EC50 for test compound for agonist activity at VDR in human HL60 cells assessed as induction of cell differentiation of promyelocytes to monocytes after 4 days by NBT reduction assay. As to conditions: HL-60, time 4.0 day. The format is cell-based.
Assay [4] shares this target. As to the kind of experiment: Potency index, ratio of EC50 for 1-alpha,25-(OH)2D3 to EC50 for test compound for agonist activity at VDR in human HL60 cells assessed as induction of cell differentiation of promyelocytes to monocytes after 4 days by NBT reduction assay. Format: cell-based. As to conditions: HL-60, time 4.0 day.
For assay [5], the target named is T2, Vitamin D3 receptor (Bos taurus) (UniProt Q28037).
T2 sequence (whole entry): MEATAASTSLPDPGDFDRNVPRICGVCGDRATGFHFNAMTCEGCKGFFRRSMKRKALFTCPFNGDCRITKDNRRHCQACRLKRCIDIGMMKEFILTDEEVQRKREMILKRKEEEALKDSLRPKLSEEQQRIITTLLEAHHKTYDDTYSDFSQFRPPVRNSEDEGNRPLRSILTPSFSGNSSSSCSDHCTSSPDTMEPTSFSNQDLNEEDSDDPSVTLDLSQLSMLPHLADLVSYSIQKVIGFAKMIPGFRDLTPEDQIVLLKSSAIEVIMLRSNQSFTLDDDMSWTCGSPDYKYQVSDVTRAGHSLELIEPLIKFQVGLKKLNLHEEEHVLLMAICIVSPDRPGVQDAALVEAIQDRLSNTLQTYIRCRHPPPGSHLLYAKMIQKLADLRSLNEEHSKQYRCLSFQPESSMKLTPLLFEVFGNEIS
The experiment in a line: (§1) Displacement of [3H]-1-alpha,25-(OH)2D3 from bovine thymus VDR incubated for 18 hrs by competitive binding assay. Conditions: filed as agonist. For orientation: Loss of bound radioactivity is the signal in a displacement assay; it reports binding, not function.

For assay [6], the target named is T3, Vitamin D3 receptor (Bos taurus, UniProt Q28037).
T3 sequence (Q28037 whole entry): T2 sequence (whole entry)
The description is as §1.

The target of assay [7] is T4, Vitamin D3 receptor (Homo sapiens, UniProt P11473).
T4 sequence (P11473 whole entry): T1 sequence (whole entry)
As to the kind of experiment: Agonist activity at human VDR expressed in African green monkey COS7 cells expressing mouse osteopontin VDRE assessed as induction of receptor transactivation incubated for 16 hrs by luciferase reporter gene assay. Format: cell-based. (A reporter such as luciferase makes a cellular process visible.)

Assay [8] has as its target T4, Vitamin D3 receptor. As to the kind of experiment: Agonist activity at human VDR expressed in HEK293 cells expressing mouse osteopontin VDRE assessed as induction of receptor transactivation incubated for 16 hrs by luciferase reporter gene assay. Format: cell-based.

With `CC(=O)O[C@@H]1CC[C@@]2(C)[C@H](CC[C@@H]3[C@@H]2CC[C@]2(C)[C@@H]([C@H](C)CCC(=O)O)CC[C@@H]32)C1`, the result in assay [1] was Active.
For `C[C@H](CCC(=O)O)[C@H]1CC[C@H]2[C@@H]3CC[C@@H]4C[C@H](CC(C)(C)O)CC[C@]4(C)[C@H]3CC[C@]12C`, the result in assay [2] was Active. Further, the Ratio EC50 in assay [3] was less than 10000; in assay [4] it was 3. Moreover, in assay [5], the Activity entry is “Dose-dependent effect”. The same compound returned a half-inhibitory concentration (IC50) in assay [6] of 2.09 nM. The EC50 in assay [7] was found to be 1 nM; in assay [8], 0.15 nM.
In the case of `C[C@H](CCC(=O)O)[C@H]1CC[C@H]2[C@@H]3CC[C@@H]4C[C@H](C(C)(C)O)CC[C@]4(C)[C@H]3CC[C@]12C`, the outcome in assay [1] was Active.
As for `C[C@H](CCC(=O)O)[C@H]1CC[C@H]2[C@@H]3CC[C@@H]4C[C@H](OS(C)(=O)=O)CC[C@]4(C)[C@H]3CC[C@]12C`, the result in assay [1] was Active.
As to `C[C@H](CCC(=O)O)[C@H]1CC[C@H]2[C@@H]3CC[C@@H]4C[C@@H](CC(C)(C)O)CC[C@]4(C)[C@H]3CC[C@]12C`, in assay [5], the Activity result is “Dose-dependent effect”. This compound displayed an IC50 in assay [6] of 67.3 nM. Further, the concentration for a half-maximal effect (EC50) in assay [7] stood at 0.24 nM; in assay [8] it was 0.014 nM.
